{"source": "patent US12312346B2", "about": "“Pyridopyrimidine compounds and methods of their use” (Tufts Medical Center, Inc., priority 2018, dated 2025)", "key": {"[1]": {"system": "A549 (lung cancer cells) xenograft tumors", "test": "A549 xenograft mouse model", "assay_type": "in vivo", "settings": "female Nod/Scid mice", "protocol": "A549 cells (3×10^5/each side) were inoculated ectopically in female Nod/Scid mice. One week after inoculation, tumor bearing mice were treated with GD at 200 mg/kg/day or PBS by oral gavage for 21 days. Data shown are mean±S.D. (n=8 for each group), *p<0.05, t-test, GD vs. PBS.\nFIG. 10B is a graph showing body weight of two groups of mice during the observation time. Body weights shown are mean±S.D. (n=4 for each group).\nWe examined the therapeutic efficacy of GD against A549 (lung cancer cells) xenograft tumors. A549 cells (3×10^5 per side in 100 μl of 50% Matrigel) were inoculated ectopically in female Nod/Scid mice on both sides. When tumor sizes reached ˜50 mm^3, animals were divided into 2 groups (n=4 mice per group), and treated with PBS or GD at dose of 200 mg/kg/day over a 21-day period (Kwapisz, supra).\nTumor sizes were measured with standard calipers every day and tumor volumes were calculated using standard methods (caliper measurements are commonly collected along the longest two dimensions of the tumor x/y plane only, with the z-axis dimension assumed to be the same as the shortest dimension) (Tomayko et al., Cancer Chemother. Pharmacol. 24:148-154, 1989). Weekly body weights were measured at designed times. At the end of the experiments, all of the tumors were isolated from the mice and weighed."}, "[2]": {"system": "phosphorylated pRB at SER-780 in HELA cells", "test": "Immunoblot of phosphorylated pRB (SER-780), HELA", "assay_type": "cell-based", "protocol": "FIG. 5E is an image of a representative immunoblot showing the levels of phosphorylated pRB at SER-780 in HELA cells following treatment of these cells with a vehicle, PD, or compound GD for 24 hours. Tubulin was used as loading control.\n(§1) Table 2: Experimental Procedures: sensitivity to CDK6 kinase activity inhibition was tested by incubating different cell lines in the presence of CDK6 inhibitor GD007/PBS for either 24 hours for detecting the status of pRB-780 phosphorylation, or 5 days for determining the effect of GD007 on cell proliferation. (1) By immunoblotting (WB), we will detect phospho-pRB-S^780, one of the substrates of CDK6 kinase; (2) By using FACS analysis, we will stain treated cells with Propidium Iodide (PI), a commonly used fluorescent intercalator, to measure the subpopulation of cell cycle to reveal any impact of CDK6 inhibition on cell proliferation; (3) cell numbers will be counted using hemocytometer."}, "[3]": {"system": "phosphorylated pRB at SER-780 in U87 cells", "test": "Immunoblot of phosphorylated pRB (SER-780), U87", "assay_type": "cell-based, human", "protocol": "FIG. 5C is an image of a representative immunoblot showing the levels of phosphorylated pRB at SER-780 in U87 cells following treatment of these cells with a vehicle, PD, or compound GD for 24 hours. Tubulin was used as loading control.\nas §1"}, "[4]": {"system": "differentiated SVF cells (white adipocyte formation)", "test": "Oil Red O staining of differentiated SVF cells with WAT inducers", "assay_type": "cell-based", "settings": "vs vehicle", "protocol": "FIG. 8A is an image of Oil Red O staining of differentiated SVF cells treated with a vehicle or compound GD (5 μM) in the presence of white adipose tissue (WAT) inducers. Scale bar: 100 μM\nFIG. 8C is an image of Oil Red O staining of differentiated SVF cells treated with a vehicle or compound GD (0.1 μM) in the presence of white adipose tissue (WAT) inducers. Scale bar: 400 μM for the top 2 images, and 100 μM for the bottom two images.\nBeige cells are associated with protection against obesity and metabolic syndrome (WO 2017/161253). Accordingly, compound GD and related compounds of the invention can be used for treating obesity and related metabolic diseases."}, "[5]": {"system": "Prostate Cancer: DU145", "test": "pRB-780 immunoblot, DU145", "assay_type": "cell-based", "settings": "WB: P-RB-780", "protocol": "as §1"}, "[6]": {"system": "phosphorylated pRB at SER-780 in U251 cells", "test": "Immunoblot of phosphorylated pRB (SER-780), U251", "assay_type": "cell-based", "protocol": "FIG. 5B is an image of a representative immunoblot showing the levels of phosphorylated pRB at SER-780 in U251 cells following treatment of these cells with a vehicle, PD, or compound GD for 24 hours. Tubulin was used as loading control.\nas §1"}, "[7]": {"system": "phosphorylated pRB at SER-780 in HPAC-1 cells", "test": "Immunoblot of phosphorylated pRB (SER-780) and PI staining, HPAC-1", "assay_type": "cell-based", "protocol": "FIG. 5D is an image of a representative immunoblot showing the levels of phosphorylated pRB at SER-780 in HPAC-1 cells following treatment of these cells with a vehicle, PD, or compound GD for 24 hours. Tubulin was used as loading control.\nas §1"}, "[8]": {"system": "human lung cancer cell line A549", "test": "Cell cycle (PI staining, S-G2-M cells) and pRB immunoblot, A549", "assay_type": "cell-based", "protocol": "FIG. 4A is a series of charts showing representative cell cycle profiles of human lung cancer cell line A549 treated with a vehicle (V) (for palbociclib (PD) or compound GD), PD (0.5 μM), or compound GD at 0.005, 0.05, 0.5, and 5 μM for 6 days.\nFIG. 4B is a histogram showing the cell cycle distribution of A549 cell line in FIG. 4A. Data shown are mean±S.D. (n=6); *P<0.05 vs its vehicle controls, t-test.\nFIG. 4C is a chart showing the percentage of S-G2-M cells in FIG. 4B. IC50 for compound GD is ca. 0.05 μM.\nFIG. […] Tubulin was used as a loading control.\nas §1"}}, "note": "“Also recorded” adds a separate entry of the source.", "data": [{"smiles": "CC(=O)c1c(C)c2cnc(Nc3nc(CN4CCNCC4)cs3)nc2[nH]c1=O", "note": "[Compound GD, 6-acetyl-5-methyl-2-((4-(piperazin-1-ylmethyl)thiazol-2-yl)amino)pyrido[2,3-d]pyrimidin-7(8H)-one]", "values": [{"measurement": "tumor weights vs PBS", "setting": "[1]; 200 mg/kg/day for 21 days, end of experiment, FIGS. 10D-10E", "value": "reduced; also recorded: decreased tumor weights"}, {"measurement": "tumor volumes (xenograft tumor growth) vs PBS", "setting": "[1]; 200 mg/kg/day oral gavage for 21 days, FIG. 10A", "value": "reduced; also recorded: suppressed xenograft tumor growth"}, {"measurement": "Compound GD Efficacy", "setting": "[2]; Cervical Cancer: Hela, WB: P-RB-780", "value": "Efficacious"}, {"measurement": "pRB phosphorylation", "setting": "[2]; cervical cancer cell line (Hela cells), 24 hours", "value": "inhibits pRB phosphorylation"}, {"measurement": "Compound GD Efficacy", "setting": "[3]; Brain Tumor: U87 human primary glioblastoma cell line, WB: P-RB-780", "value": "Efficacious"}, {"measurement": "pRB phosphorylation", "setting": "[3]; glioblastoma cell line U87, 24 hours", "value": "inhibits pRB phosphorylation"}, {"measurement": "white adipocyte formation", "setting": "[4]; GD 0.1 μM, FIG. 8C", "value": "inhibited white adipocyte formation"}, {"measurement": "white adipocyte formation", "setting": "[4]; GD 5 μM, FIG. 8A", "value": "inhibited white adipocyte formation"}, {"measurement": "Compound GD Efficacy", "setting": "[5]", "value": "No"}, {"measurement": "Compound GD Efficacy", "setting": "[6]; Brain Tumor: U251, WB: P-RB-780", "value": "Efficacious"}, {"measurement": "pRB phosphorylation", "setting": "[6]; glioblastoma cell line U251, 24 hours", "value": "inhibits pRB phosphorylation"}, {"measurement": "Compound GD Efficacy", "setting": "[7]; Pancreas Cancer: HPAC, WB and PI staining", "value": "Efficacious"}, {"measurement": "pRB phosphorylation", "setting": "[7]; pancreas adenocarcinoma (HPAC-1), 24 hours", "value": "inhibits pRB phosphorylation"}, {"measurement": "growth of lung cancer cell line A549", "setting": "[8]; FIGS. 4A-4D", "value": "inhibits growth"}, {"measurement": "IC50", "setting": "[8]; Homo sapiens, 144 h, A549, 6 days, read-out: IC50 (percentage of S-G2-M cells)", "value": "~50", "unit": "nM"}, {"measurement": "Compound GD Efficacy", "setting": "[8]; Lung Cancer: A549, WB: P-RB-780, PI staining", "value": "Efficacious"}]}]}
